row,melting point [°C],Compound
1,226 to 228,Cc1nc2nccc(C(=O)O)n2n1
2,251 to 253,O=c1[nH]cnc2c1CCNC2
3,129 to 131,CC(Cl)C(=O)NC1CCOc2ccccc21 (stereo not given)
4,100 to 102,Cc1cc(C#N)c(N)s1
5,127 to 129,Cn1cc(/C=C/[N+](=O)[O-])cn1
6,112 to 116,Cc1cc(-c2csc(N)n2)c(C)n1CC1CCCO1 (stereo not given)
7,229 to 231,CCc1nc(-c2ccc(C(=O)O)cc2)n[nH]1
8,125 to 127,O=C(O)c1ncoc1C1CCCO1 (stereo not given)
9,128 to 130,CCOC(=O)c1noc(-c2cccc(F)c2-n2ccnc2)n1
10,150 to 152,CCN(CC)S(=O)(=O)c1ccc(CCC(=O)O)cc1
11,97 to 99,Nc1cccc(OCc2cccnc2)c1
12,123 to 125,NCC(c1ccccc1)c1c[nH]c2ccccc12 (stereo not given)
13,130 to 132,CCC(=CC(=O)O)c1ccc(OC)cc1
14,241 to 243,Cc1cc(=O)[nH]c(-c2ccncc2)n1
15,59 to 61,COc1ccccc1C(=O)c1ccccc1Cl
16,127 to 129,Nc1cccc(Cn2nc3ccccn3c2=O)c1
17,86 to 88,OCCOc1ccc(O)cc1
18,139 to 141,Nc1ccc(Cl)cc1C(=O)N1CCCC1
19,31 to 32,CCCNC(=O)CN1CCNCC1
20,141 to 143,O=C(O)c1cnn(-c2ncccc2Cl)c1C(F)(F)C(F)(F)F
21,140 to 142,O=C(O)CCc1csc2ccccc12
22,139 to 141,Fc1cccc2ncnc(Cl)c12
23,122 to 124,CN(c1ccc(C(=N)N)cc1)C1CCCCC1
24,153 to 155,O=C(O)CNC(=O)c1cccc(F)c1

row,melting point [°C],Compound
1,95 to 97,O=C(O)c1ccc(F)c(COCc2ccccc2)c1
2,115 to 116,CC(C)c1ccccc1Nc1nc2ccccc2s1
3,191 to 193,CCc1cc(C(=O)O)n[nH]1
4,70 to 74,CN(CCC#N)c1ccc(C=O)cc1
5,164 to 166,CC(NC(N)=S)c1ccc(Cl)cc1Cl (stereo not given)
6,113 to 115,O=C(O)c1noc(-c2cc(Cl)ccc2F)n1
7,58 to 60,COC(C)C(N)=S (stereo not given)
8,135 to 137,CN(C)CC(N)=NO
9,94 to 96,Clc1ccc(CBr)c2ncccc12
10,48 to 50,N#Cc1ccccc1N1CCOCC1
11,327 to 329,N#Cc1c(-c2ccccc2)nc(S)[nH]c1=O
12,190 to 192,COc1ccc2cc(C(=O)O)[nH]c2c1
13,145 to 147,Cc1cc(=O)c(C(=O)O)nn1-c1ccccc1C(F)(F)F
14,121 to 123,Nc1ccnc(Oc2ccccc2Cl)c1
15,56 to 58,O=Cc1cnn(CC(F)(F)F)c1
16,226 to 228,O=C(Cc1ccc(Br)cc1)Nc1ccsc1C(=O)O
17,151 to 153,CC1CCC(NC(=O)OC(C)(C)C)(C(=O)O)CC1 (stereo not given)
18,173 to 175,CC(Sc1ncn[nH]1)C(=O)O (stereo not given)
19,210 to 212,Sc1ncc(-c2ccc(Br)cc2)[nH]1
20,87 to 89,O=S(=O)(Cl)c1ccc2ncccc2c1
21,133 to 135,CC1CCCCC1Nc1nnc(S)s1 (stereo not given)
22,193 to 195,COc1ccccc1Oc1ccc(C(N)=S)cc1
23,45 to 47,COC(=O)c1ccc(C)c(S(=O)(=O)Cl)c1
24,148 to 150,O=C(CCl)Nc1nnc(C2CC2)o1

row,melting point [°C],Compound
1,279 to 281,O=C(O)c1cc(S(=O)(=O)NCCN2CCCC2)ccc1Cl
2,170 to 174,O=C(O)c1ccccc1SCc1nnnn1-c1ccccc1
3,139 to 141,C/C(=N\O)c1ccc(-c2ccc(F)cc2)s1
4,114 to 116,O=[N+]([O-])c1ccc(NC2CCCC2)nc1
5,144 to 146,Cc1ccc(OCC(=O)O)c(C=O)c1
6,57 to 59,CC(C)(C)c1nn(-c2ccccc2)cc1C=O
7,185 to 187,O=C(O)CCN1C(=O)C2C3CCC(O3)C2C1=O (stereo not given)
8,49 to 51,Cc1cc(N)nn1C
9,182 to 184,Clc1ccnc2cc(Br)cnc12
10,145 to 147,CC1CCc2c(sc(N)c2C#N)C1 (stereo not given)
11,114 to 116,Nc1ccn(-c2ccc(Cl)cc2Cl)n1
12,190 to 193,CC(=O)Nc1ccc(C(=O)C(C)Cl)cc1 (stereo not given)
13,219 to 221,NC(=O)CCn1c(S)nnc1-c1cccs1
14,227 to 229,Nc1ccc(-c2nnc3n2CCCC3)cc1
15,85 to 87,CSc1nc2cnccc2o1
16,131 to 133,Cc1cc(Cl)c(O)cc1OCC(=O)O
17,112 to 114,Nc1ccccc1CN1CCC(O)CC1
18,49 to 51,CC(=O)c1cccc([N+](=O)[O-])c1C
19,136 to 138,Nc1ccc(S(=O)(=O)NCc2ccc(F)cc2)cc1
20,98 to 100,O=C1CCN(C2CC2)CCN1
21,60 to 62,CC(C)(C)OC(=O)N1CC[C@H](O)C1
22,249 to 251,O=C(O)c1ccc(-c2cccc3ccccc23)s1
23,198 to 200,CCOC(=O)c1cc(C)nc2c(C(N)=O)cnn12
24,115 to 117,CCCc1ccc(-c2csc(N)n2)cc1

row,melting point [°C],Compound
1,231 to 233,O=C(c1ccccn1)N1CCNCC1
2,96 to 98,CC(C(=O)O)n1cccn1 (stereo not given)
3,124 to 126,NNC(=S)NCCc1ccccn1
4,64 to 66,CCCN(C(=O)c1ccccc1N)C(C)C
5,81 to 83,O=C(O)Cc1ccc(S(=O)(=O)N2CCCCC2)s1
6,108 to 110,COC(=O)c1ccc(-c2nc(CCl)cs2)cc1
7,72 to 74,COc1ccc(C=O)cc1OCCCC#N
8,156 to 158,N#Cc1ccc(NCCC(N)=O)c(F)c1
9,75 to 77,COc1cc(S(=O)(=O)Cl)ccc1[N+](=O)[O-]
10,133 to 135,CN(C(=O)OC(C)(C)C)c1ccc(O)cc1
11,158 to 160,Cc1ccc(C(=O)O)cc1OCc1csc(Br)c1
12,59 to 61,Cc1cc(N(C)C)ccc1C#N
13,189 to 191,COc1cc(=O)[nH]c(NC(=O)CCl)n1
14,94 to 96,CCOC(=O)c1ccc(S(=O)(=O)N2CCNCC2)cc1
15,80 to 82,Cc1ccc([N+](=O)[O-])c(C)c1N
16,210 to 212,CC(C)C(N)c1nc(-c2nnc[nH]2)no1 (stereo not given)
17,93 to 95,CCOC(=O)c1c(-c2ccc(C)s2)csc1N
18,135 to 137,Nc1cc(I)ccc1O
19,293 to 295,COc1cc2ncc(C(=O)O)c(O)c2cc1OC
20,77 to 79,Nc1cc(C2CCC2)no1
21,175 to 177,CCOC(=O)C1SC(=N)NC1=O (stereo not given)
22,159 to 161,COc1cc(S(=O)(=O)Cl)cc(C(=O)O)c1OC
23,84 to 86,O=[N+]([O-])c1cc(Br)ccc1I
24,74 to 76,O=Cc1c(Cl)cccc1N1CCOCC1

row,melting point [°C],Compound
1,49 to 51,CS(=O)(=O)NCc1ccccc1
2,107 to 109,Nc1ccc(CC(=O)N2CCCC2)cc1
3,123 to 125,O=Cc1cc(-n2ccnc2)cs1
4,75 to 77,O=C(Nc1cccc2cccnc12)OCC(F)(F)F
5,103 to 105,Cc1ccc(NC(=O)OC(C)(C)C)s1
6,158 to 160,CC(Oc1ccc(C#N)cc1)C(=O)O (stereo not given)
7,125 to 127,O=S(=O)(Cl)c1cccc(-n2cnnn2)c1
8,96 to 98,Cc1cc(N)n(-c2ccncc2)n1
9,139 to 141,COC(=O)c1ccc(S(N)(=O)=O)c([N+](=O)[O-])c1
10,103 to 105,O=C(O)c1cnns1
11,215 to 217,Cc1sc2ncnc(SCC(=O)O)c2c1C
12,216 to 218,COc1ccccc1CNc1ccc2[nH]c(=O)[nH]c2c1
13,169 to 171,NS(=O)(=O)c1ccc(CC(=O)O)cc1
14,94 to 96,O=C1CCCC(C(=O)O)N1 (stereo not given)
15,113 to 115,CCCN(CCC)C(=O)C1C2C=CC(C2)C1C(=O)O (stereo not given)
16,144 to 146,CN(C)c1nc(=NN)cc[nH]1
17,159 to 161,O=C(CCl)Nc1ccccc1Sc1ccccc1
18,139 to 141,N#Cc1cnn(-c2cccc(Cl)c2)c1
19,297 to 299,O=C(O)c1cc(=O)c2cc(Br)ccc2[nH]1
20,139 to 141,NS(=O)(=O)c1cc([N+](=O)[O-])ccc1F
21,169 to 171,Nc1nc(CN2CCN(c3nccs3)CC2)cs1
22,35 to 39,CC(C)CCc1ccc(S(=O)(=O)Cl)cc1
23,149 to 151,Cc1nnc2ccc(Br)cn12
24,116 to 118,CCOc1c(Cl)cc(C(=O)O)cc1OC

row,melting point [°C],Compound
1,219 to 221,NC(CC(=O)O)c1cccs1 (stereo not given)
2,45 to 47,O=C(CC(F)(F)F)c1cc(F)ccc1F
3,60 to 62,CC(C)Oc1c(F)cc(N)cc1F
4,309 to 311,Cc1ccc(C(=O)O)cc1NC(=O)Nc1ccccc1
5,179 to 181,Cc1cc(C)c(S(N)(=O)=O)cc1C
6,197 to 199,Cc1nc(-c2ccc(I)cc2)n[nH]1
7,154 to 156,CC(C)(C)OC(=O)Nc1ccccc1C(=O)O
8,146 to 148,O=C(O)c1nnn(-c2ccc(F)cc2)c1C(F)(F)F
9,94 to 96,COC(=O)c1sc(-c2ccccc2)cc1O
10,266 to 268,O=C1Nc2cc(F)c(Br)cc2C1=O
11,66 to 68,Cc1cc(N)n(C(C)(C)C)n1
12,152 to 154,CC(C)(C)OC(=O)N1C(=O)NC(C)(C)C1=O
13,144 to 146,CC(Cl)C(=O)Nc1c(Cl)cccc1Cl (stereo not given)
14,154 to 156,Nc1cc(Cl)ccc1-n1ccnc1
15,131 to 133,NC(=O)CCc1ccc(N)cc1
16,219 to 221,COc1ccc(Nc2nc3cc(S(=O)(=O)N4CCOCC4)ccc3o2)cc1
17,56 to 58,O=C(O)CSCCc1ccccc1
18,122 to 124,CC(C)(C(N)=O)c1ccc(N)cc1
19,205 to 208,COc1ccccc1C1C(C(=O)O)CCC(=O)N1c1ccc(C)cc1 (stereo not given)

row,Compound,melting point [°C]
1,CC(=O)C(C#N)c1ccc(Cl)cc1 (stereo not given),129 to 131
2,Cc1nc(N2CCNCC2)sc1C,72 to 74
3,O=C1CN(Cc2ccnc(Cl)c2)CCN1,143 to 145
4,Clc1ccc(N2CCNCC2)nc1,64 to 66
5,Cc1ccn2c(CN3CCNCC3)c(C)nc2c1,97 to 99
6,O=[N+]([O-])C=Cc1ccc(F)cc1F,55 to 57

# Source: a melting point compilation (Tetko et al.)
